Test results from patent US8686150B2 (Sanofi, priority 2011, dated 2014).

The molecules below were run against T1, human full-length recombinant PKC βII (Homo sapiens, UniProt P05771) (assay: Determination of PKC βII inhibition (Caliper mobility-shift kinase assay, Fluorescein-RFARKGSLRQKNV peptide substrate)). Details: example compounds at a final concentration of 1.14 μM (±0.15 μM).
T1 construct: Active human full-length recombinant PKC βII; purchased Invitrogen GmbH, Darmstadt, Germany
Type: biochemical
Experimental: Determination of PKC βII Inhibition
PKC βII Inhibition was Determined According to the Following Protocol:
Active human full-length recombinant PKC βII and the peptide substrate, Fluorescein-RFARKGSLRQKNV, were purchased from Invitrogen GmbH, Darmstadt, Germany. Adenosine-5′-triphosphate (ATP), bovine serum albumine (BSA), dimethylsulphoxide (DMSO), 4-(2-hydroxyethyl)piperazine-1-ethanesulfonic acid (Hepes), Triton X-100, 1,2-Dioleoyl-sn-glycerol (DAG), L-G-Phosphatidyl-L-serine (PS), calcium chloride (CaCl2), and Pluronic F-68 were purchased from Sigma-Aldrich, Munich, Germany. Magnesium chloride, 1 M sodium hydroxide solution, 1M hydrochloric acid solution and EDTA were obtained from Merck Biosciences, Darmstadt, Germany.
Test compounds were diluted to three times the test concentration in buffer 1 (30 mM Hepes-NaOH, pH 7.4, 0.01% Pluronic F-68 and 3% (v/v) DMSO). The PKC enzyme was diluted to a concentration of 30 ng/ml in buffer 2 (30 mM Hepes-NaOH, pH 7.4, 15 mM MgCl2, 150 μM CaCl2, 150 μg/ml PS, 60 μg/ml DAG, and 0.045% (w/v) Triton X-100). The peptide substrate and ATP were diluted to concentrations of 3 μM and 120 μM, respectively, in buffer 2. Two μl of the compound solution were mixed with 2 μl of the diluted enzyme in a 384-well small volume microtiter plate (Greiner, Bio-One, Frickenhausen, Germany), and the kinase reaction was initiated by addition of 2 μl of the solution containing peptide substrate and ATP. After 60 min incubation at 32° C., the reaction was stopped by addition of 20 μl of a solution containing 130 mM Hepes-NaOH, pH 7.4. 0.0195% (v/v) Brij-35, 6.5 mM EDTA. 0.13% chip coating reagent 3 (Caliper Lifescience Inc, Hopkinton, Mass.) and 6.5% (v/v) DMSO. Phosphorylation of the substrate peptide was then detected on a Caliper 3000 instrument essentially as described by Pommereau et al (J. Biomol. Screening 2004, 9(5), 409-416). Separation conditions were as follows: Pressure −0.8 psi, upstream voltage −3000 V, downstream voltage −800 V. Positive controls (buffer 1 instead of compound) and negative controls (buffer 1 instead of compound and buffer 2 instead of kinase solution) were run in parallel on each plate. Fractional turnover (R) was determined as the height of the peak of the phosphorylated peptide product divided by the sum of the unphosphorylated substrate and phosphorylated product peak heights. Percent-inhibition values for the test compounds were determined using the formula % Inhibition=100*(1−(Rcompound−Rnegative control)/(Rpositive control−Rnegative control).
In the following table % inhibition values observed with example compounds at a final concentration of 1.14 μM (±0.15 μM) are listed: […]

T1 sequence (P05771 1-673 isoform P05771-2): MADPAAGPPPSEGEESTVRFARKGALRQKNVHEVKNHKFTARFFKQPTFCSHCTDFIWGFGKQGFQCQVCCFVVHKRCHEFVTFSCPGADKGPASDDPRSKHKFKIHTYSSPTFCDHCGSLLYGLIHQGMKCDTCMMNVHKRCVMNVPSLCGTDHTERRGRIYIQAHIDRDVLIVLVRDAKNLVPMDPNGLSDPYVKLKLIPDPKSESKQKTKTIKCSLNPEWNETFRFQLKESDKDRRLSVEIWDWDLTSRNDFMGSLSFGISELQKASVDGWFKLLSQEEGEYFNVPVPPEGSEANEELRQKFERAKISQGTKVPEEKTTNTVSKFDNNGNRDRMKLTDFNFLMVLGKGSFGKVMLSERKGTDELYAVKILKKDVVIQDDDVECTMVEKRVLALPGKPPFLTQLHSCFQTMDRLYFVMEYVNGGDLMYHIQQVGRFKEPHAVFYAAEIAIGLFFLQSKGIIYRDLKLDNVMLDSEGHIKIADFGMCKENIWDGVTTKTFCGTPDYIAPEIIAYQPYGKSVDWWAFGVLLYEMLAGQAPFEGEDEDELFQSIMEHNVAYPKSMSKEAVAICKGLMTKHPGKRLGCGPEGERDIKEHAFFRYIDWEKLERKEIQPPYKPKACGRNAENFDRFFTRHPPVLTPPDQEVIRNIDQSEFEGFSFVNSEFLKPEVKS

Row | inhibition at 1.14 µM [%] | % Inhibition [%] | Structure (SMILES)
1 | 99 | – | CO[C@H]1CNC[C@@H]1NC(=O)c1cc(-c2ccc(O)cc2)nc2[nH]nc(C)c12 (racemic) [Example 78, 6-(4-Hydroxy-phenyl)-3-methyl-1H-pyrazolo[3,4-b]pyridine-4-carboxylic acid ((trans)-4-methoxy-pyrrolidin-3-yl)-amide]
2 | 75 | – | Cc1n[nH]c2nc(-c3ccc(O)cc3)cc(C(=O)NC3CCCC[C@@H]3N)c12 (mixture of isomers) [Example 123, 6-(4-Hydroxy-phenyl)-3-methyl-1H-pyrazolo[3,4-b]pyridine-4-carboxylic acid (trans-2-amino-cyclohexyl)-amide]
3 | 79 | – | CN[C@H]1CN(C(=O)c2cc(-c3ccc(O)cc3)nc3[nH]nc(C)c23)CC[C@H]1C (racemic) [Example 229, [6-(4-Hydroxy-phenyl)-3-methyl-1H-pyrazolo[3,4-b]pyridin-4-yl]-(cis-4-methyl-3-methylamino-piperidin-1-yl)-methanone]
4 | 53 | – | Cc1n[nH]c2nc(-c3ccc(O)cc3)cc(C(=O)N[C@H]3C[C@@H]3N)c12 (racemic) [Example 251, 6-(4-Hydroxy-phenyl)-3-methyl-1H-pyrazolo[3,4-b]pyridine-4-carboxylic acid (trans-2-amino-cyclopropyl)-amide]
5 | 59 | – | Cc1n[nH]c2nc(-c3ccc(O)c(F)c3)cc(C(=O)N[C@H]3C[C@@H]3N)c12 (racemic) [Example 307, 6-(3-Fluoro-4-hydroxy-phenyl)-3-methyl-1H-pyrazolo[3,4-b]pyridine-4-carboxylic acid (trans-2-amino-cyclopropyl)-amide]
6 | 54 | – | CN[C@H]1CN(C(=O)c2cc(-c3ccc(O)c(F)c3)nc3[nH]nc(C)c23)CC[C@H]1C (racemic) [Example 312, [6-(3-Fluoro-4-hydroxy-phenyl)-3-methyl-1H-pyrazolo[3,4-b]pyridin-4-yl]-(cis-4-methyl-3-methylamino-piperidin-1-yl)-methanone]
7 | 97 | – | Cc1n[nH]c2nc(-c3ccc(O)cc3F)cc(C(=O)N3CCN[C@@H](C)[C@H]3C)c12 (racemic) [Example 442, ((cis)-2,3-Dimethyl-piperazin-1-yl)-[6-(2-fluoro-4-hydroxy-phenyl)-3-methyl-1H-pyrazolo[3,4-b]pyridin-4-yl]-methanone]
8 | 95 | – | Cc1n[nH]c2nc(-c3ccc(O)cc3)cc(C(=O)N3C[C@H](C)NC[C@H]3C)c12 (relative stereo) [Example 73, (trans-2,5-Dimethyl-piperazin-1-yl)-[6-(4-hydroxy-phenyl)-3-methyl-1H-pyrazolo[3,4-b]pyridin-4-yl]-methanone]
9 | 91 | – | Cc1ccc([C@@H]2CNC[C@H]2NC(=O)c2cc(-c3ccc(O)cc3)nc3[nH]nc(C)c23)cc1 (relative stereo) [Example 119, 6-(4-Hydroxy-phenyl)-3-methyl-1H-pyrazolo[3,4-b]pyridine-4-carboxylic acid (trans-4-p-tolyl-pyrrolidin-3-yl)-amide]
10 | 48 | – | Cc1n[nH]c2nc(-c3ccc(O)cc3)cc(C(=O)N[C@@H]3CCCC[C@@H]3N)c12 (relative stereo) [Example 126, 6-(4-Hydroxy-phenyl)-3-methyl-1H-pyrazolo[3,4-b]pyridine-4-carboxylic acid (cis-2-amino-cyclohexyl)-amide]
11 | 83 | – | Cc1n[nH]c2nc(-c3ccc(O)cc3F)cc(C(=O)N3C[C@@H](c4ccccc4)NC[C@@H]3C)c12 (relative stereo) [Example 447, [6-(2-Fluoro-4-hydroxy-phenyl)-3-methyl-1H-pyrazolo[3,4-b]pyridin-4-yl]-(trans-2-methyl-5-phenyl-piperazin-1-yl)-methanone]
12 | – | 88 | Cc1n[nH]c2nc(-c3ccc(O)cc3)cc(C(=O)N3CCNC(c4ccccc4)C3)c12 (single isomer, unassigned) [Example 456, [6-(4-Hydroxy-phenyl)-3-methyl-1H-pyrazolo[3,4-b]pyridin-4-yl]-(3-phenyl-piperazin-1-yl)-methanone]
13 | – | 63 | Cc1n[nH]c2nc(-c3ccc(O)cc3)cc(C(=O)N3CCNC(c4ccccc4)C3)c12 (single isomer, unassigned) [Example 457, [6-(4-Hydroxy-phenyl)-3-methyl-1H-pyrazolo[3,4-b]pyridin-4-yl]-(3-phenyl-piperazin-1-yl)-methanone]
14 | – | 61 | Cc1n[nH]c2nc(-c3ccc(O)cc3F)cc(C(=O)N3C[C@@H](c4ccccc4)NC[C@@H]3C)c12 (single isomer, unassigned) [Example 460, [6-(2-Fluoro-4-hydroxy-phenyl)-3-methyl-1H-pyrazolo[3,4-b]pyridin-4-yl]-(trans-2-methyl-5-phenyl-piperazin-1-yl)-methanone]
15 | – | 99 | Cc1n[nH]c2nc(-c3ccc(O)cc3F)cc(C(=O)N3C[C@@H](c4ccccc4)NC[C@@H]3C)c12 (single isomer, unassigned) [Example 461, [6-(2-Fluoro-4-hydroxy-phenyl)-3-methyl-1H-pyrazolo[3,4-b]pyridin-4-yl]-(trans-2-methyl-5-phenyl-piperazin-1-yl)-methanone]
16 | 92 | – | Cc1n[nH]c2nc(-c3ccc(O)cc3)cc(C(=O)NC34CNCC3C4)c12 (stereo in doubt) [Example 205, 6-(4-Hydroxy-phenyl)-3-methyl-1H-pyrazolo[3,4-b]pyridine-4-carboxylic acid [(R)-3-azabicyclo[3.1.0]hexan-1-yl]-amide]
17 | 74 | – | Cc1n[nH]c2nc(-c3ccc(O)c(F)c3)cc(C(=O)N[C@@H]3[C@H]4CC[C@H](C4)[C@H]3CN)c12 (stereo in doubt) [Example 311, 6-(3-Fluoro-4-hydroxy-phenyl)-3-methyl-1H-pyrazolo[3,4-b]pyridine-4-carboxylic acid (3-aminomethyl-bicyclo[2.2.1]hept-2-yl)-amide]
18 | 98 | – | Cc1n[nH]c2nc(-c3ccc(O)cc3)cc(C(=O)N3CCNCC3(C)c3ccccc3)c12 (centres unmarked) [Example 1, [6-(4-Hydroxy-phenyl)-3-methyl-1H-pyrazolo[3,4-b]pyridin-4-yl]-(2-methyl-2-phenyl-piperazin-1-yl)-methanone]
19 | 69 | – | CCc1n[nH]c2nc(-c3ccc(O)c(F)c3)cc(C(=O)N3CCNCC3)c12 [Example 2, [3-Ethyl-6-(3-fluoro-4-hydroxy-phenyl)-1H-pyrazolo[3,4-b]pyridin-4-yl]-piperazin-1-yl-methanone]
20 | 82 | – | CCc1n[nH]c2nc(-c3ccc(O)cc3)cc(C(=O)N3CCNCC3)c12 [Example 3, [3-Ethyl-6-(4-hydroxy-phenyl)-1H-pyrazolo[3,4-b]pyridin-4-yl]-piperazin-1-yl-methanone]
21 | 86 | – | CCCc1n[nH]c2nc(-c3ccc(O)cc3)cc(C(=O)N3CCNCC3)c12 [Example 4]
22 | 74 | – | O=C(c1cc(-c2ccc(O)cc2)nc2[nH]nc(C(F)(F)F)c12)N1CCNCC1 [Example 5, [6-(4-Hydroxy-phenyl)-3-trifluoromethyl-1H-pyrazolo[3,4-b]pyridin-4-yl]-piperazin-1-yl-methanone]
23 | 97 | – | Cc1n[nH]c2nc(-c3ccc(O)cc3Cl)cc(C(=O)N3CCNCC3)c12 [Example 6, [6-(2-Chloro-4-hydroxy-phenyl)-3-methyl-1H-pyrazolo[3,4-b]pyridin-4-yl]-piperazin-1-yl-methanone]
24 | 91 | – | Cc1n[nH]c2nc(-c3ccc(O)c(F)c3)cc(C(=O)N3CCNCC3)c12 [Example 7, [6-(3-Fluoro-4-hydroxy-phenyl)-3-methyl-1H-pyrazolo[3,4-b]pyridin-4-yl]-piperazin-1-yl-methanone]

Row | Structure (SMILES) | inhibition at 1.14 µM [%] | % Inhibition [%]
25 | Cc1n[nH]c2nc(-c3ccc(O)c(F)c3)cc(C(=O)NC3CN4CCC3CC4)c12 (stereo in doubt) [Example 317, (S)-6-(3-Fluoro-4-hydroxy-phenyl)-3-methyl-1H-pyrazolo[3,4-b]pyridine-4-carboxylic acid (1-aza-bicyclo[2.2.2]oct-3-yl)-amide] | 68 | –
26 | Cc1n[nH]c2nc(-c3ccc(O)c(F)c3)cc(C(=O)NC3CN4CCC3CC4)c12 (stereo in doubt) [Example 361, (R)-6-(3-Fluoro-4-hydroxy-phenyl)-3-methyl-1H-pyrazolo[3,4-b]pyridine-4-carboxylic acid (1-aza-bicyclo[2.2.2]oct-3-yl)-amide] | 50 | –
